“Also recorded” adds a separate entry of the source. Structures can show the parent of a compound that is named as a salt. Where two headings read alike, the source gives them in different places. Marks after values point to notes of the source that are not given here.
How the values were obtained:
[1] = Solubility determination of carbendazim salts in water (HPLC); settings: for PHmax: pH below which solubility plateaus or decreases (solution saturated with respect to salt); for pH: saturated solution in water, Table 13
Experimental: These were mixed by end-to-end rotation. Each sample was then filtered through a 0.45 μm PVDF filter. The filterate was collected in two or more fractions, which were analyzed separately by HPLC to ensure that there were no misleading solubility measurements resulting from adsorption onto the filter. Filter adsorption was assumed to be negligible when the concentration of successive fractions agreed within ±5%. The composition of the residual solid was examined to ensure that at least some of the solid phase that was in equilibrium with the solution was indeed the salt.
The Ksp determinations were generally calculated directly from the observed carbendazim concentration once it was established that the residual solid phase contained excess salt. Since […] results in the neutralization of an equivalent amount of counterion to its free base form, the same procedure could be used to calculate Ksp in systems where free acid precipitation occurred prior to saturation of the system with the given salt.
A Beckman Gold HPLC system equipped with a model no. 168 detector at 280 nm was used for all assays. […] The flow rate was controlled at 0.8 ml/min, with carbendazim's retention time at 3.5 min. The injection volume was 20 μL. The evaluation of the assay was conducted by using carbendazim standard solutions at concentrations ranging from 0.1 μg/ml to 100 μg/ml.

[2] = Dissolution studies in 0.1N hydrochloric acid; format: physicochemical; settings: for t60% (time for dissolution of 60% of given amount): pH 1, amount equivalent to 50 mg carbendazim
Experimental: A weighed amount of salt (so as to have 50 mg of carbendazim) was triturated to provide a uniform particle size and was suspended in the dissolution media. The volume of dissolution media was 250 ml, and the stirring rate was maintained at 250 rpm. One ml aliquot samples filtered through a 0.45 μm Millipore filter were withdrawn at 1, 5, 10, 15, 20, 30, 45, and 60 min, respectively. One ml of the dissolution medium was added to the dissolution vessel after each sampling period to maintain constant volume. The samples were then analyzed by HPLC.

[3] = Dissolution studies in Millipore water; format: physicochemical; settings: for completeness of dissolution: 60 min; for t40% (time for dissolution of 40% of given amount): water, amount equivalent to 50 mg carbendazim; for dissolution compared, in words: dissolution profiles
[4] = Moisture sorption studies (desiccators at 43% and 81% RH, 25° C., 8 days; PXRD of the solid afterwards); format: physicochemical; settings: for PXRD pattern / solid state form after storage / moisture adsorbed: 8 days; for moisture adsorbed: 25° C.; for Hygroscopicity: gain of moisture: hygrostat for 8 days at 43% RH; for hygroscopicity in words: 43 and 81% RH
Experimental: The PXRD patterns of different salts of carbendazim were determined at ambient temperature and atmosphere using a Philips PM 990/100 diffractometer (Philips, The Netherlands). The x-ray generator (PW3373/00 Cu LFF DK119706) has a copper radiation source which generates a voltage of 50 kV, and a current of 40 mA. Counts were measured using a X'Celerator detector which is based on real time multiple strip (RTMS) technology. Samples were packed into zero background silicon sample holders, and precautions were used to avoid introducing preferred orientation of the crystallites. The samples were subjected to a spinning movement having a rotation time of 4 s. The samples were scanned with the diffraction angle, 2θ, increasing from 3° to 63°, with a step size of 0.0167° and a counting time of 15.24 s. The XRD pattern traces of samples (salts subjected to moisture sorption or stability) were compared with regard to peak position and relative intensity, peak shifting, and the presence or lack of peaks in certain angular regions.
The moisture sorption of the various salts was determined by exposing weighed amounts (˜2 to 3 mg) of salts in a 4 ml glass vial, which was placed in sealed desiccators containing saturated salt solutions. Saturated salt solutions that give defined relative humidities (as a function of temperature) have been reported in various handbooks containing physical and chemical data.
The current study was performed at 25° C. with relative humidity values of 43% (saturated solution of potassium carbonate) and 81% (saturated solution of potassium bromide). The samples were stored in desiccators of known relative humidity for 8 days, following which they were re-weighed to calculate the % weight change. The solid phases were then analyzed using PXRD to ascertain the effect of the moisture content.

[5] = cited from earlier work; for pKa: weak base compounds
[6] = Dehydration kinetics by TGA (Flynn and Wall method); format: physicochemical; settings: TGA heating rates 5-15° C. per minute
Experimental: TGA traces were recorded with a TA Instruments TGA Q-50 (TA Instruments, New Castle, Del.). The sample weight was approximately 2-4 mg, and heating rates of 2-15° C./min under nitrogen gas flow of 60 ml/min were used.
The dehydration kinetics of carbendazim hydrochloride dihydrate was studied by subjecting the crystals to TGA heating rates of 5, 7, 10, 12, and 15° C. per minute. The activation energy (Ea) for the dehydration process was calculated from these TGA data according to the method described by Flynn and Wall (J. H. Flynn and L. A. Wall, J. Research Nat. Bur. Standards A, Phys. Chem. A71, 25 (1967); J. Polym. Sci., Pol. Left. 5, 191 (1967); J. Polym. Sci., Pol. Lett. 4, 323 (1966)). This method involves the analysis of weight loss versus temperature at different heating rates (β) to determine the corresponding absolute temperatures at a constant weight loss (C). Graphs of negative logarithm of heating rates (expressed in ° C./s) (−log β) versus 1/T were plotted (FIG. 8) and the activation energy calculated from the slope of the curves. The activation energy for the dehydration of the hydrochloride salt, calculated from the TGA data, was ˜64 kJ/mol.

carbendazim tosylate
pH of saturated sol. ([1]; Table 14): 1.93 | Ksp ([1]; calculated after correcting for common ion effect): 4.1 × 10^−4 M^2 | PHmax [1]: 1.82 | pH ([1]; 25° C.): 1.93 | S (aqueous solubility) ([1]; water, 25° C.): 4.815 mg/mL | Sw ([1]; water, Table 14): 4.815 mg/mL | t60% (time for dissolution of 60% of given amount) [2]: 2 to 3 min | completeness of dissolution ([3]; Millipore water): did not completely dissolve | t40% (time for dissolution of 40% of given amount) [3]: ˜5 min | PXRD pattern / solid state form after storage ([4]; 43% RH): remained unchanged | moisture adsorbed ([4]; 81% RH): approximately 4.3% | PXRD pattern / solid state form after storage ([4]; 81% RH): remained unchanged | Hygroscopicity: gain of moisture [4]: Gain 0.27%

carbendazim phosphate
t60% (time for dissolution of 60% of given amount) [2]: 2 to 3 min | completeness of dissolution ([3]; Millipore water): did not completely dissolve | dissolution compared, in words ([3]; Millipore water): better dissolution than the 1:1 physical mixture | t40% (time for dissolution of 40% of given amount) [3]: ˜5 min | PXRD pattern / solid state form after storage ([4]; 43% RH): changed. | PXRD pattern / solid state form after storage ([4]; 43% RH, listed as phosphate): loses intensity in 28 0 2E reflection | PXRD pattern / solid state form after storage ([4]; 43% RH, listed as phosphate salt): change form | hygroscopicity in words [4]: highly hygroscopic | moisture adsorbed ([4]; 81% RH): 7.5% | PXRD pattern / solid state form after storage ([4]; 81% RH): showed changes in their PXRD patterns | Hygroscopicity: gain of moisture [4]: Gain 0.88%

CC(=O)O.CCCCCCCCCCCCCCCCCC1=NCCN1 [Glyodin]
pKa [5]: ˜7

carbendazim hemisulfate monohydrate
t60% (time for dissolution of 60% of given amount) [2]: 2 to 3 min | completeness of dissolution ([3]; Millipore water): did not completely dissolve | t40% (time for dissolution of 40% of given amount) [3]: ˜3 min | PXRD pattern / solid state form after storage ([4]; 43% RH): remained unchanged | hygroscopicity in words [4]: minimally hygroscopic | PXRD pattern / solid state form after storage ([4]; 81% RH): remained unchanged | Hygroscopicity: gain of moisture [4]: Gain 0.38%

Clc1ccc(COC(Cn2ccnc2)c2ccc(Cl)cc2Cl)c(Cl)c1 (stereo not shown) [Miconazole]
pKa [5]: 6.7

carbendazim mesylate
pH of saturated sol. ([1]; Table 14): 0.80 | pH ([1]; 25° C.): 0.8 | S (aqueous solubility) ([1]; water, 25° C.): > 205.662 mg/mL | S (aqueous solubility) ([1]; water, 25° C., listed as mesylate): > 200 mg/mL | Sw ([1]; water, Table 14): >205.662* mg/ml | time for dissolving 100% of sample ([2]; 0.1N HCl, pH 1.1): instanteously soluble | t60% (time for dissolution of 60% of given amount) [2]: 1 min | time to complete dissolution ([3]; Millipore water): ≤ 30 min | dissolution compared, in words ([3]; Millipore water): dissolved the fastest; also recorded: best dissolution time | t40% (time for dissolution of 40% of given amount) [3]: <1 min | PXRD pattern / solid state form after storage ([4]; 43% RH): moisture, same | hygroscopicity in words [4]: highly hygroscopic | moisture adsorbed ([4]; 81% RH): 10.1% | PXRD pattern / solid state form after storage ([4]; 81% RH): showed changes in their PXRD patterns | Hygroscopicity: gain of moisture [4]: Gain 2.04%

CCCCOC(=O)c1ccc(N)cc1 [Butamben]
pKa [5]: 5.4

COC(=O)Nc1nc2ccccc2[nH]1 [Free Base, carbendazim, reference compound]
S (aqueous solubility) [1]: 0.006 mg/mL | Sw [1]: 0.006 mg/mL | pH of saturated sol. [1]: 5.90 | completeness of dissolution ([2]; 0.1N HCl): completely soluble | t60% (time for dissolution of 60% of given amount) [2]: 5 min | dissolved fraction of the initial dose ([3]; Millipore water, after 60 min): less than 1% | Hygroscopicity: gain of moisture [4]: Gain 0.36%

COC(=O)Nc1nc2ccccc2[nH]1 [Hydrochloride, carbendazim hydrochloride]
activation energy for the dehydration [6]: ~64 kJ/mol | S (aqueous solubility) [1]: 6.080 mg/mL | Sw [1]: 6.080 mg/mL | pH of saturated sol. [1]: 1.68 | pH ([1]; 25° C.): 1.68 | t60% (time for dissolution of 60% of given amount) ([2]; hydrochloride): 2 to 3 min | completeness of dissolution ([3]; Millipore water): did not completely dissolve | t40% (time for dissolution of 40% of given amount) [3]: ˜5 min | PXRD pattern / solid state form after storage ([4]; 43% RH): remained unchanged | hygroscopicity in words [4]: minimally hygroscopic | PXRD pattern / solid state form after storage ([4]; 81% RH): remained unchanged | Hygroscopicity: gain of moisture ([4]; hydrochloride): Gain 0.13%

Cc1cc(NC(=O)NC(=O)c2ccccc2N(C)C)ccc1Oc1ncc(Br)cn1 [BPU NSC 639829]
pKa [5]: ˜5

Cc1cc(-c2nc3ccccc3s2)ccc1N [AMPB]
pKa [5]: 4

CN/C(=N\CCSCc1nc[nH]c1C)NC#N [Cimetadine]
pKa [5]: 6.8

CCN(CC)C(=O)c1cccnc1 [Nikethamide]
pKa [5]: 3.5

O=S(=O)(O)c1ccccc1 [Benzenesulfonic acid]
Pka1 ([5]; acids used as counter-ions, Table 1): 0.7

carbendazim besylate
pH of saturated sol. ([1]; Table 14): 1.76 | PHmax [1]: 1.65 | pH ([1]; 25° C.): 1.76 | S (aqueous solubility) ([1]; water, 25° C.): 6.992 mg/mL | Sw ([1]; water, Table 14): 6.992 mg/mL | t60% (time for dissolution of 60% of given amount) [2]: 2 to 3 min | completeness of dissolution ([3]; Millipore water): did not completely dissolve | t40% (time for dissolution of 40% of given amount) [3]: ˜5 min | PXRD pattern / solid state form after storage ([4]; 43% RH): remained unchanged | moisture adsorbed ([4]; 81% RH): approximately 4.3% | PXRD pattern / solid state form after storage ([4]; 81% RH): remained unchanged | Hygroscopicity: gain of moisture [4]: Gain 0.18%
